molecular target: T1, cPLA2 (Homo sapiens, UniProt P47712); test: Coumarine Assay; format: biochemical; settings: 60 μM 7-hydroxycoumarinyl 6-heptenoate substrate, 4 μg cPLA2, pH 7.5, fluorescence ex 360 nm / em 460 nm; read-out: Coumarin IC50
T1 sequence (P47712 1-749): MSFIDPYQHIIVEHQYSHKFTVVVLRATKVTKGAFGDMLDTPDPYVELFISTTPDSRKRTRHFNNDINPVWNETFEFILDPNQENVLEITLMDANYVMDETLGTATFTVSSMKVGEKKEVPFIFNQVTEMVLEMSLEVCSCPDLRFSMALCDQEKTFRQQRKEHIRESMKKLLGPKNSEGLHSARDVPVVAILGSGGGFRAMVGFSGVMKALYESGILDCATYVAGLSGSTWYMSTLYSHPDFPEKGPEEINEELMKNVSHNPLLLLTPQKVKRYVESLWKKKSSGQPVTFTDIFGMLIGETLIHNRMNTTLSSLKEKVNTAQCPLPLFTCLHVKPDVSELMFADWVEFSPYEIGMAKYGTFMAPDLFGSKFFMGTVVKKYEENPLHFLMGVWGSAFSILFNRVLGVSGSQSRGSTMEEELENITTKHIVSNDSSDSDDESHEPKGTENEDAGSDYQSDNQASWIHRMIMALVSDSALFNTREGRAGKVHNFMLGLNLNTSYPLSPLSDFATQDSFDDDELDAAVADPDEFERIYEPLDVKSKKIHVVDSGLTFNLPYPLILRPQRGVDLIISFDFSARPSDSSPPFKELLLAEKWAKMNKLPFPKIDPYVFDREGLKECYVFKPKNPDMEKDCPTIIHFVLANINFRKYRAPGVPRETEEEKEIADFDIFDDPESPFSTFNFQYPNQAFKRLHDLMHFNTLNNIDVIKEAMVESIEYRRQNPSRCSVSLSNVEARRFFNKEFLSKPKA

Row | Compound | IC50 [nM]
1 | Nc1ccccc1CS(=O)(=O)NCCc1c(CCCc2ccc(C(=O)O)cc2)c2cc(Cl)ccc2n1C(c1ccccc1)c1ccccc1 [Example 69, 4-{3-[2-(2-{[(2-aminobenzyl)sulfonyl]amino}ethyl)-1-benzhydryl-5-chloro-1H-indol-3-yl]propyl}benzoic acid] | 150
2 | COc1cccc(CS(=O)(=O)NCCc2c(CCCc3ccc(C(=O)O)cc3)c3cc(Cl)ccc3n2C(c2ccccc2)c2ccccc2)c1 [Example 68, 4-{3-[1-benzhydryl-5-chloro-2-(2-{[(3-methoxybenzyl)sulfonyl]amino}ethyl)-1H-indol-3-yl]propyl}benzoic acid] | 160
3 | O=C(O)c1ccc(CCCc2c(CCNS(=O)(=O)CCN3CCOCC3)n(C(c3ccccc3)c3ccccc3)c3ccc(Cl)cc23)cc1 [Example 100, 4-(3-{1-Benzhydryl-5-chloro-2-[2-(2-morpholin-4-yl-ethanesulfonylamino)-ethyl]-1H-indol-3-yl}-propyl)-benzoic acid] | 120
4 | O=C(O)c1ccc(OCCc2c(CCNS(=O)(=O)C3CC3)n(C(c3ccccc3)c3ccccc3)c3ccc(Cl)cc23)cc1 [Example 23, 4-[2-(1-benzhydryl-5-chloro-2-{2-[(cyclopropylsulfonyl)amino]ethyl}-1H-indol-3-yl)ethoxy]benzoic acid] | 1500
5 | O=C(O)c1ccc(OCCc2c(CCNS(=O)(=O)Cc3ccncc3)n(C(c3ccccc3)c3ccccc3)c3ccc(Cl)cc23)cc1 [Example 50] | 690
6 | O=C(O)c1ccc(OCCc2c(CCNS(=O)(=O)Cc3ccccc3)n(C(c3ccccc3)c3ccccc3)c3ccc(Cl)cc23)cc1 [Example 1, 4-[2-(1-Benzhydryl-2-{2[(benzylsulfonyl)amino]ethyl}-5-chloro-1H-indol-3-yl)ethoxyl]benzoic acid] | 420
7 | O=C(O)c1ccc(OCCc2c(CCNS(=O)(=O)CCn3ncnn3)n(C(c3ccccc3)c3ccccc3)c3ccc(Cl)cc23)cc1 [Example 103, 4-(2-{1-benzhydryl-5-chloro-2-[2-(2-tetrazol-2-yl-ethanesulfonylamino)-ethyl]-1H-indol-3-yl}ethoxy)benzoic acid] | 1100
8 | O=C(O)c1ccc(OCCc2c(CCNS(=O)(=O)C(F)(F)F)n(C(c3ccccc3)c3ccccc3)c3ccc(Cl)cc23)cc1 [Example 22, 4-{2-[1-benzhydryl-5-chloro-2-(2-{[(trifluoromethyl)sulfonyl]amino}ethyl)-1H-indol-3-yl]ethoxy}benzoic acid] | 1800
9 | O=C(O)c1ccc(OCCc2c(CCNS(=O)(=O)c3cc(Cl)cc(Cl)c3)n(C(c3ccccc3)c3ccccc3)c3ccc(Cl)cc23)cc1 [Example 27, 4-{2-[1-benzhydryl-5-chloro-2-(2-{[(3,5-dichlorophenyl)sulfonyl]amino}ethyl)-1H-indol-3-yl]ethoxy}benzoic acid] | 800
10 | CCCCS(=O)(=O)NCCc1c(CCOc2ccc(C(=O)O)cc2)c2cc(Cl)ccc2n1C(c1ccccc1)c1ccccc1 [Example 3, 4-[2-(1-Benzhydryl-2-{2-[(butylsulfonyl)amino]ethyl}-5-chloro-1H-indol-3-yl)ethoxy]benzoic acid] | 2500
11 | O=C(O)c1ccc(CCCc2c(CCNS(=O)(=O)Cc3ccc(F)cc3)n(C(c3ccccc3)c3ccccc3)c3ccc(Cl)cc23)cc1 [Example 57] | 280
12 | C[C@@H]1CCC[C@H](C)N1CCS(=O)(=O)NCCc1c(CCOc2ccc(C(=O)O)cc2)c2cc(Cl)ccc2n1C(c1ccccc1)c1ccccc1 [Example 96, 4-[2-(1-benzhydryl-5-chloro-2-{2-[({2-[(2R,6S)-2,6-dimethyl-1-piperidinyl]ethyl}sulfonyl)amino]ethyl}-1H-indol-3-yl)ethoxy]benzoic acid] | 950
13 | N#Cc1cccc(CS(=O)(=O)NCCc2c(CCOc3ccc(C(=O)O)cc3)c3cc(Cl)ccc3n2C(c2ccccc2)c2ccccc2)c1 [Example 36, 4-{2-[1-Benzhydryl-5-chloro-2-(2-{[(3-cyanobenzyl)sulfonyl]amino}ethyl)-1H-indol-3-yl]ethoxy}benzoic acid] | 500
14 | O=C(O)c1ccc(OCCc2c(CCNS(=O)(=O)Cc3ccc(Cl)c(Cl)c3)n(C(c3ccccc3)c3ccccc3)c3cc(Cl)ccc23)cc1 [Example 106, 4-(2-{1 -Benzhydryl-6-chloro-2-[2-(3,4-dichloro-phenylmethanesulfonylamino)-ethyl]-1H-indol-3-yl}-ethoxy)-benzoic acid] | 220
15 | O=C(O)c1ccc(OCCc2c(CCNS(=O)(=O)Cc3c(F)cccc3[N+](=O)[O-])n(C(c3ccccc3)c3ccccc3)c3ccc(Cl)cc23)cc1 [Example 72, 4-{2-[1-Benzhydryl-5-chloro-2-(2-{[(2-fluoro-6-nitrobenzyl)sulfonyl]amino}ethyl)-1H-indol-3-yl]ethoxy)benzoic acid] | 280
16 | O=C(O)c1ccc(OCCc2c(CCNS(=O)(=O)CCN3CCN(c4ccccn4)CC3)n(C(c3ccccc3)c3ccccc3)c3ccc(Cl)cc23)cc1 [Example 91, 4-[2-(1-benzhydryl-5-chloro-2-{2-[({2-[4-(2-pyridinyl)-1-piperazinyl]ethyl}sulfonyl)amino]ethyl}-1H-indol-3-yl)ethoxy]benzoic acid] | 500
17 | CS(=O)(=O)CS(=O)(=O)NCCc1c(CCOc2ccc(C(=O)O)cc2)c2cc(Cl)ccc2n1C(c1ccccc1)c1ccccc1 [Example 7, 4-(2-(1-Benzhydryl-5-chloro-2-[2-({[(methylsulfonyl)methyl]sulfonyl}amino)ethyl]-1H-indol-3-yl}ethoxy)benzoic acid] | 550
18 | O=C(O)c1ccc(OCCc2c(CCNS(=O)(=O)Cc3ccc4ccccc4c3)n(C(c3ccccc3)c3ccccc3)c3ccc(Cl)cc23)cc1 [Example 19, 4-{2-[1-benzhydryl-5-chloro-2-(2{[(2-naphthylmethyl)sulfonyl]amino}ethyl)-1H-indol-3-yl]ethoxy}benzoic acid] | 310
19 | CN(C)CC1CCCCN1CCS(=O)(=O)NCCc1c(CCOc2ccc(C(=O)O)cc2)c2cc(Cl)ccc2n1C(c1ccccc1)c1ccccc1 (centres unmarked) [Example 124, 4-[2-(1-Benzhydryl-5-chloro-2-{2-[2-(2-dimethylaminomethyl-piperidin-1-yl)-ethanesulfonylamino]-ethyl}-1H-indol-3-yl)-ethoxy]-benzoic acid] | 800
20 | O=C(O)c1ccc(OCCc2c(CCNS(=O)(=O)Cc3ccc(C(F)(F)F)cc3)n(C(c3ccccc3)c3ccccc3)c3ccc(Cl)cc23)cc1 [Example 13] | 640
21 | 2-(2{[(2-Aminobenzyl)sulfonyl]amino}ethyl)-4-(2-[1-benzhydryl-5-chloro-1H-indol-3-yl]ethoxy}benzoic acid [Example 16] | 980
22 | O=C(O)c1ccc(OCCc2c(CCNS(=O)(=O)CSc3cc(Cl)cc(Cl)c3)n(C(c3ccccc3)c3ccccc3)c3ccc(Cl)cc23)cc1 [Example 85] | 400
23 | CN(C)S(=O)(=O)NCCc1c(CCOc2ccc(C(=O)O)cc2)c2cc(Cl)ccc2n1C(c1ccccc1)c1ccccc1 [Example 17, 4-{2-[1-Benzhydryl-5-chloro-2-(2-{[(dimethylamino)sulfonyl]amino}ethyl)-1H-indol-3-yl]ethoxy}benzoic acid] | 200
24 | O=C(O)c1ccc(CCCc2c(CCNS(=O)(=O)Cc3ccccc3)n(C(c3ccccc3)c3ccccc3)c3ccccc23)cc1 [Example 128, 4-[3-(1-benzhydryl-2-{2-[(benzylsulfonyl)amino]ethyl}-1H-indol-3-yl)propyl]benzoic acid] | 320
25 | O=C(O)CCc1ccc(S(=O)(=O)CCc2c(CCNS(=O)(=O)Cc3c(F)cccc3F)n(C(c3ccccc3)c3ccccc3)c3ccc(Cl)cc23)cc1 [Example 131, 3-[4-({2-[1-benzhydryl-5-chloro-2-(2-{[(2,6-difluorobenzyl)sulfonyl]amino}ethyl)-1H-indol-3-yl]ethyl}sulfonyl)phenyl]propanoic acid] | 200
26 | O=C(O)c1ccc(OCCc2c(CCNS(=O)(=O)c3cnc(Cl)c(Br)c3)n(C(c3ccccc3)c3ccccc3)c3ccc(Cl)cc23)cc1 [Example 5, 4-{2-[1-Benzhydryl-2-(2-{[(5-bromo6-chloro-3-pyridinyl)sulfonyl]amino}ethyl)-5-chloro-1H-indol-3-yl]ethoxy}benzoic acid] | 3000
27 | O=C(O)c1ccc(OCCc2c(CCNS(=O)(=O)Cc3c(Cl)cccc3Cl)n(C(c3ccccc3)c3ccccc3)c3ccc(Cl)cc23)cc1 [Example 73, 4-{2-[1-Benzhydryl-5-chloro-2-(2-{[(2-dichlorobenzyl)sulfonyl]amino}ethyl)-1H-indol-3-yl]ethoxy}benzoic acid] | 300
28 | O=C(O)c1ccc(CCCc2c(CCNS(=O)(=O)Cc3cc(Cl)ccc3Cl)n(C(c3ccccc3)c3ccccc3)c3ccc(Cl)cc23)cc1 [Example 67, 4-{3-[1-benzhydryl-5-chloro-2-(2-{[(2,5-dichlorobenzyl)sulfonyl]amino}ethyl)-1H-indol-3-yl]propyl}benzoic acid] | 140
29 | O=C(O)c1ccc(S(=O)(=O)CCc2c(CCNS(=O)(=O)Cc3ccccc3F)n(C(c3ccccc3)c3ccccc3)c3ccc(Cl)cc23)cc1 [Example 138, 4-({2-[1-benzhydryl-5-chloro-2-(2-{[(2-fluorobenzyl)sulfonyl]amino}ethyl)-1H-indol-3-yl]ethyl}sulfonyl)benzoic acid] | 200

Source: patent US6635771B2, “N-benzhydryl indole compounds” (Wyeth, priority 2001, dated 2003)
